Experimental data published in paper PMC10822852, “Structural and biochemical insights into the mechanism of the Gabija bacterial immunity system” (Nature Communications, 2024).

How the values were obtained:
[1] = target: T1, Gabija complex (GajA and GajB) (Bacillus cereus, UniProt J8H9C1+J8HQ06); experiment: inhibition of DNA cleavage, agarose gel; assay type: biochemical; details: 1 mM MgCl2, pH 9, 37 °C, 5 min
T1 construct: full-length GajA (1-578, Strep-tag II) co-expressed with full-length GajB (1-493, 6xHis) in E. coli BL21(DE3); hetero-octamer 4:4

[2] = target: the molecule itself; experiment: SEC-MALS; Superdex 200 10/300 Increase, samples injected at 1 mg/ml in Buffer B (10 mM Tris-HCl pH 7.5, 300 mM NaCl, 2 mM DTT), 0.5 ml/min; GajA, GajB and the co-purified Gabija complex

T1 sequence (J8HQ06 1-493, one chain of several): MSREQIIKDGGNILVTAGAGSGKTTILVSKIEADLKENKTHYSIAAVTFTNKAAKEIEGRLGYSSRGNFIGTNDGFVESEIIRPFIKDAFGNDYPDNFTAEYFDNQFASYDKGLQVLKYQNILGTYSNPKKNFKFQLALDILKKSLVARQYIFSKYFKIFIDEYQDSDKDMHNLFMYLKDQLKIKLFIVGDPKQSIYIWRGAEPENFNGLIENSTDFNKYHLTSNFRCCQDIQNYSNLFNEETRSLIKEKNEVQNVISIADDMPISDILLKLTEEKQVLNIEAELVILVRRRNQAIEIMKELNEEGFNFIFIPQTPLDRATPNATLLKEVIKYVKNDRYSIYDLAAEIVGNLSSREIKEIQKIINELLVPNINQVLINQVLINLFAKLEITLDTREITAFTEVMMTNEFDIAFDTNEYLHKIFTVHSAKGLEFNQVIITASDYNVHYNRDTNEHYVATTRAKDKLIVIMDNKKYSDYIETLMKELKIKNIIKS

Molecule	inhibition of DNA cleavage, agarose gel ([1]; supercoiled pUC19-15 plasmid)	further results
Nc1ncnc2c1ncn2[C@@H]1O[C@H](COP(=O)(O)OP(=O)(O)O)[C@@H](O)[C@H]1O [ADP]	significantly inhibited by different NTP, dNTP, ADP, but not AMP	–
Nc1ncnc2c1ncn2[C@@H]1O[C@H](COP(=O)(O)OP(=O)(O)NP(=O)(O)O)[C@@H](O)[C@H]1O [AMP-PNP]	–	inhibition of DNA cleavage, agarose gel ([1]; non-hydrolysable ATP analogue, DNA substrate not given): cleavage activity of the Gabija complex is also inhibited by AMP-PNP
Nc1nc2c(ncn2[C@@H]2O[C@H](COP(=O)(O)OP(=O)(O)OP(=O)(O)O)[C@@H](O)[C@H]2O)c(=O)[nH]1 [GTP]	significantly inhibited with the increased concentration of ATP and GTP	–
GajA (enzyme, Bacillus cereus VD045, UniProt J8H9C1 1-578, looked up, OLD family nuclease with ATPase domain (1-351) and Toprim domain (352-578); The methods describe only the co-expression and purification of the complex; Cloned into PET-52b; also called GajA1; GajA2; source: E. coli BL21 (DE3), purified (Strep-tactin Sepharose, Superdex 200); co-expressed with GajB for the Gabija complex) MKFSNITIKNFRNFEKVNINLDNKNVIFGMNDIGKTNFLYALRFLLDKEIRKFGFNKSDYHKHDTSKKIEIILTLDLSNYEKDEDTKKLISVVKGARTSANADVFYIALESKYDDKELYGNIILKWGSELDNLIDIPGRGNINALDNVFKVIYINPLVDLDKLFAQNKKYIFEESQGNESDEGILNNIKSLTDQVNQQIGEMTIIKGFQQEITSEYRSLKKEEVSIELKSEMAIKGFFSDIIPYIKKDGDSNYYPTSGDGRRKMLSYSIYNYLAKKKYEDKIVIYLIEEPEISLHRSMQIALSKQLFEQSTYKYFFLSTHSPELLYEMDNTRLIRVHSTEKVVCSSHMYNVEEAYGSVKKKLNKALSSALFAERVLLIEGPSEKILFEKVLDEVEPEYELNGGFLLEVGGTYFNHYVCTLNDLGITHIIKTDNDLKSKKGKKGVYELLGLNRCLNLLGRENLDEITIDIPEDIKGKKKKERLNERKKEIFKQYKNEVGEFLGERIYLSEIDLENDLYSAIGESMKRIFENEDPVHYLQKSKLFNMVELVNNLSTKDCFDVFEHEKFACLKELVGSDRG	–	stoichiometry N [2]: 4
